Source: patent US7638306B2, “Process of increasing cellular production of biologically active compounds” (Fermalogic, Inc., priority 2003, dated 2009)
Counter-ions that a name gives are not always drawn.

Tests used:
[1] = system: wild type A. erythreum; test: growth inhibition of wild type A. erythreum by kanamycin; format: cell-based, Aeromicrobium erythreum
[2] = system: A. erythreum mutants containing the aph1 gene; settings: aphI (aph1) gene from Tn903 expressed in A. erythreum
Source text: E. coli library of A. erythreum genomic DNA. The plasmid library was constructed in the A. erythreum integration vector pFL2082, a pUC19-derived vector containing the aphI gene from Tn903. […] Several different vector preparations were dephosphorylated with different concentrations of CIAP or SAP in order to obtain the highest ratio of white to blue colonies after ligation. […] To generate a library that represented in excess of 5-fold coverage of the chromosome (estimated A. erythreum genome size somewhere between 4-8 Mb, representing about 4,000-8,000 coding sequences), 100,000 white colonies were harvested into 25 pools. This large number of colonies was chosen based on the assumption that some genes will be disproportionately represented over others after selection in E. coli. The colonies were split among 25 pools (ca. 4,000 colonies/pool) to increase randomness. To determine the insert size of random plasmid isolates a total of 65 white colonies were analyzed by restriction analysis of their plasmid DNA. […] This library was designated A. erythreum genomic library or library 1.
To generate a gene replacement library we developed a rapid, simple visual screen that took advantage of the Kn^r phenotype of single crossover mutants and the Kn^s phenotype of gene replacement mutants. […]

Structure (SMILES)	kanamycin concentration to which A. erythreum is sensitive (growth inhibited) [1] [µg/mL]	kanamycin concentration up to which resistance is conferred with good growth [2] [µg/mL]
NC[C@H]1O[C@H](O[C@H]2[C@H](O)[C@@H](O[C@H]3O[C@H](CO)[C@@H](O)[C@H](N)[C@H]3O)[C@H](N)C[C@@H]2N)[C@H](O)[C@@H](O)[C@@H]1O [Kanamycin sulfate]	≥ 5	
NC[C@H]1O[C@H](O[C@H]2[C@H](O)[C@@H](O[C@H]3O[C@H](CO)[C@@H](O)[C@H](N)[C@H]3O)[C@H](N)C[C@@H]2N)[C@H](O)[C@@H](O)[C@@H]1O [kanamycin]	≥ 2	10 to 15
